Measured values: US20180117053A1, “The Method of Use for Inhibitors of Epidermal Growth Factor Receptor Variants II, III and VI” (Metastat, Inc., priority 2015, published 2018)

What was measured:
EGFR-viii = target: T1, EGFR-viii (Homo sapiens, UniProt P00533, DELINS30-297G); experiment: PhosphoY1173-EGFR-viii in-cell ELISA in U87MG tumor cells engineered to express EGFR-viii; format: cell-based; details: U87MG tumor cells expressing EGFR-viii; for activity against EGFR-viii: in words
T1 construct: expressed in transfected cells; host or cells: U87MG (ATCC), lentiviral infection, puromycin selection
Description: Data are expressed as EC50 and were determined using an in-cell ELISA kit (Pierce).

[1] = test system: tumors expressing EGFR-viii; details: clinical studies (Vivanco 2012, Reardon 2014); cited from earlier work

Compound | activity against EGFR-viii (EGFR-viii; in-cell ELISA) | other results
C=CC(=O)Nc1ccc2ncnc(Nc3ccc(OCc4cccc(F)c4)c(Cl)c3)c2c1 [AST-1306] | – | potency against EGFR-viii relative to WZ4002, WZ8040, WZ3146, CO-1686 and AZD9291 (EGFR-viii): at least ten-fold more potent; EC50 (EGFR-viii; in-cell ELISA, read-out: EC50 against EGFR-viii (phosphoY1173-EGFRviii)): < 50 nM
C=CC(=O)Nc1cccc(Nc2nc(Nc3ccc(N4CCN(C(C)=O)CC4)cc3OC)ncc2C(F)(F)F)c1 [CO-1686] | weak activity | –
CS(=O)(=O)CCNCc1ccc(-c2ccc3ncnc(Nc4ccc(OCc5cccc(F)c5)c(Cl)c4)c3c2)o1 [Lapatinib, lapatinib] | – | cancer growth inhibition in clinical studies [1]: insignificant cancer growth inhibition
C=CC(=O)Nc1cccc(Oc2nc(Nc3ccc(N4CCN(C)CC4)cc3)ncc2Cl)c1 [WZ3146] | weak activity | –
C=CC(=O)Nc1cccc(Sc2nc(Nc3ccc(N4CCN(C)CC4)cc3)ncc2Cl)c1 [WZ8040] | weak activity | –
